Measured values taken from patent publication US20240124478A1, “SPIROCYCLIC-SUBSTITUTED 6,7-DIHYDRO-PYRANO[2,3-d]PYRIMIDINE INHIBITORS OF KRAS G12C MUTANT” (Merck Sharp & Dohme LLC, priority 2020, published 2024).
Like-named read-outs stand apart in the source and are kept apart here.

Key:
[1] = biological target: recombinant biotinylated KRAS protein containing G12C/C51S/C80L/C118S mutations (Biotinylated KRAS G12C protein) (Homo sapiens (Human), UniProt P01116, C118S/C51S/C80L/G12C); experiment: SOS-catalyzed nucleotide exchange assay (TR-FRET); assay type: biochemical; conditions: apparent potency; preincubation time of 60 minutes prior to addition of SOS
recombinant biotinylated KRAS protein containing G12C/C51S/C80L/C118S mutations (Biotinylated KRAS G12C protein), sequence (P01116 other isoform, or with tags, fused parts or gaps, stated change not applied): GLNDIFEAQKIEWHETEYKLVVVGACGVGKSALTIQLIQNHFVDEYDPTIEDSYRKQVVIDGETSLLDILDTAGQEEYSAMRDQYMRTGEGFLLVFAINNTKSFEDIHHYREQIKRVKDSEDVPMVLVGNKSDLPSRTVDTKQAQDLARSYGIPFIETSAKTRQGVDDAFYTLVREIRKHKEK
Description: The SOS-catalyzed nucleotide exchange assay utilizes a preformed complex of recombinant biotinylated KRAS protein containing G12C/C51S/C80L/C118S mutations (183 amino acids; biotin on K10; leader sequence which is an AviTag; referred to as SEQ ID NO: 1 or “Biotinylated KRAS G12C protein” hereafter), Bodipy-GDP, and Terbium-streptavidin. Compounds are added to this complex and then after 60 minutes incubation time, the mixture is treated with recombinant SOS protein and unlabeled GTP. Small molecule inhibitors stabilize the Bodipy-GDP complex whereas the untreated protein rapidly exchanges Bodipy-GDP for unlabeled GTP resulting in reduced TR-FRET signal.
Biotinylated KRAS G12C protein (SEQ ID NO: 1) is diluted to 2 μM in an EDTA buffer (20 mM HEPES, 150 mM sodium chloride, 10 mM EDTA, and 0.01% Tween) and incubated at room temperature for one hour. This mixture is then further diluted to 90 nM in an assay buffer (20 mM HEPES, 150 mM sodium chloride, 10 mM magnesium chloride, and 0.005% Tween) containing 15 nM of Terbium-Streptavidin (Invitrogen, catalog #PV3577) and 900 nM of Bodipy-GDP and incubated at room temperature for six hours. This solution is referred to as Biotinylated KRAS G12C mixture.
Each test compound (10 mM stock in DMSO) is diluted in DMSO to make a 10-point, 3-fold dilution series in a 384-well low dead volume microplate (Labcyte, catalog #LP-0200). Once titrations are made, 10 nL of the diluted compounds is acoustically dispensed into a 384-well plate (Corning, catalog #3820) using an Echo 550 (Labcyte).
Each well of the plate receives 3 μL Biotinylated KRAS G12C mixture that had been incubating for six hours and 3 μL of assay buffer using a BioRAPTR (Beckman Coulter) and is incubated at room temperature for 60 minutes. Each well then receives 3 μL of 240 nM recombinant human SOS protein and 9 mM GTP (Sigma, G8877) in assay buffer and is incubated at room temperature for 60 minutes.
The time-resolved fluorescence resonance energy transfer signal of the plate is measured on an Envision (PerkinElmer) plate reader: Excitation filter=340 nm; emission1=495 nm; emission2=520 nm; dichroic mirror=D400/D505; delay time=100 μs. The signal of each well is determined as the ratio of the emission at 520 nm to that at 495 nm. Percent effect of each well is determined after normalization to control wells containing DMSO (no effect) or a saturating concentration of inhibitor (max effect). The apparent effect as a function of compound concentration is fit to a four parameter logistic equation.

[2] = tested on: NCI-H358 cells; experiment: Cellular phospho-ERK assay; assay type: cell-based; conditions: 2 hour incubation, ratio of p-Erk vs total Erk, read-out: IC50 (nM) pERK (Cell)
Description: NCI-H358 cells (ATCC® CRL-5807™) were cultured in T150 flask in growth medium (RPMI medium 1640-(ThermoFisher Scientific 61870) containing 10% fetal bovine serum (ThermoFisher Scientific 10091148)). The cells were harvested in growth medium after TrypLE (ThermoFisher scientific 12604021) digestion and were seeded in 384-well collagen coated cell culture plate (Corning 356702) at a density of 15,000 cells/well, and incubated at 37° C., 5% CO2 overnight. The compound dose-response titrations were prepared and appropriate amounts of compounds were dispensed in a 384-well intermediate plate using an Echo 550 liquid handler. RPMI medium 1640-GlutaMAX™-I were added to the intermediate plate and transferred to 384-well cell culture plate, which was incubated at 37° C., 5% CO2 for 2 hours. After removal of medium from the plate, cells were lysed in lysis buffer from SureFire® Ultra™ Multiplex p-Erk and total Erk assay kit (PerkinElmer MPSU-PTERK) containing Halt™ Protease and Phosphotase inhibitor cocktail (ThermoFisher Scientific 78446) at room temperature with constant shaking at 300 rpm for 30 minutes. The cell lysates were then transferred to OptiPlate-384 plate (PerkinElmer 6005620) and the phosphorylation of Erk and total Erk levels were detected by Alpha SureFire Ultra Multiplex p-Erk kit PerkinElmer MPSU-PTERK) following the manufacturer's protocol. Assay plates were read on an EnVision Multimode Plate Reader (PerkinElmer), and the ratio of p-Erk vs total Erk in each well was used as the final readout. Dose response curves were analyzed using a 4-parameter logistic model to calculate IC50 values using spotfire software.

| IC50 [1] [nM] | IC50 ([2]; Homo sapiens, NCI-H358, 2 h) [nM] | IC50 [2] [nM] | Compound |
| --- | --- | --- | --- |
| 11.6 |  | 2740 | C=CC(=O)N1CCN(c2nc(OC[C@@H]3CCCN3C)nc3c2CCC2(CC(C)c4ccccc42)O3)C[C@@H]1CC#N (single isomer, unassigned) [Example 25b] |
| 253 |  | 11000 | C=CC(=O)N1CCN(c2nc(OC[C@@H]3CCCN3C)nc3c2CCC2(CC(C)c4ccccc42)O3)C[C@@H]1CC#N (single isomer, unassigned) [Example 25c] |
| 113 |  | 8130 | C=CC(=O)N1CCN(c2nc(OC[C@@H]3CCCN3C)nc3c2CCC2(CC(C)c4ccccc42)O3)C[C@@H]1CC#N (single isomer, unassigned) [Example 25d] |
| 1080 | 30000 |  | C=CC(=O)N1CCN(c2nc(OC[C@@H]3CCCN3C)nc3c2CCC2(O3)c3ccccc3CC2(C)C)C[C@@H]1CC#N (single isomer, unassigned) [Example 27a] |
| 4490 |  | 28600 | C=CC(=O)N1CCN(c2nc(OC[C@@H]3CCCN3C)nc3c2CCC2(O3)c3ccccc3CC2(C)C)C[C@@H]1CC#N (single isomer, unassigned) [Example 27b] |
| 7840 | > 30000 |  | C=CC(=O)N1CCN(c2nc(OC[C@@H]3CCCN3C)nc3c2CCC2(CCc4c2ccc2[nH]ncc42)O3)C[C@@H]1CC#N (single isomer, unassigned) [Example 28a] |
| 2330 |  | 29400 | C=CC(=O)N1CCN(c2nc(OC[C@@H]3CCCN3C)nc3c2CCC2(CCc4c2ccc2[nH]ncc42)O3)C[C@@H]1CC#N (single isomer, unassigned) [Example 28b] |
| 5010 | 19200 |  | C=CC(=O)N1CCN(c2nc(OC[C@@H]3CCCN3C)nc3c2CCC2(Cc4ccccc4C2)O3)C[C@@H]1CC#N [Example 29, 2-((S)-1-acryloyl-4-(2′-(((S)-1-methylpyrrolidin-2-yl)methoxy)-1,3,5′,6′-tetrahydrospiro[indene-2,7′-pyrano[2,3-d]pyrimidin]-4′-yl)piperazin-2-yl)acetonitrile] |
| 68.6 | 1290 |  | C=CC(=O)N1CCN(c2nc(OC[C@@H]3CCCN3C)nc3c2CCC2(O3)c3ccccc3-c3ccccc32)C[C@@H]1CC#N [Example 30, 2-((S)-1-acryloyl-4-(2′-(((S)-1-methylpyrrolidin-2-yl)methoxy)-5′,6′-dihydrospiro[fluorene-9,7′-pyrano[2,3-d]pyrimidin]-4′-yl)piperazin-2-yl)acetonitrile] |

The next lines start with the compound.

| Compound | IC50 [1] [nM] | IC50 ([2]; Homo sapiens, NCI-H358, 2 h) [nM] | IC50 [2] [nM] |
| --- | --- | --- | --- |
| C=CC(=O)N1CCN(c2nc(C(N)=O)nc3c2CCC2(CCCc4ccccc42)O3)C[C@@H]1CC#N (single isomer, unassigned) [Example 18b] | 268 | 1520 |  |
| C=CC(=O)N1CCN(c2nc(C(=O)N[C@H](C)CN(C)C)nc3c2CCC2(CCCc4cccc(C)c42)O3)CC1 (single isomer, unassigned) [Example 19a] | 8470 | 30000 |  |
| C=CC(=O)N1CCN(c2nc(N3CC(N(C)C)C3)nc3c2CCC2(CCCc4ccccc42)O3)C[C@@H]1CC#N (single isomer, unassigned) [Example 20a] | 41.8 | 1470 |  |
| C=CC(=O)N1CCN(c2nc(N3CC(N(C)C)C3)nc3c2CCC2(CCCc4ccccc42)O3)C[C@@H]1CC#N (single isomer, unassigned) [Example 20b] | 80.4 |  | 2760 |
| C=CC(=O)N1CCN(c2nc(OC[C@@H]3CCCN3C)nc3c2CCC2(CCCc4ccccc42)O3)CC1 (single isomer, unassigned) [Example 21a] | 5340 | 10200 |  |
| C=CC(=O)N1CCN(c2nc(OC[C@@H]3CCCN3C)nc3c2CCC2(CCc4ccccc42)O3)CC1 (single isomer, unassigned) [Example 22a] | 6320 | 24600 |  |
| C=CC(=O)N1CCN(c2nc(OC[C@@H]3CCCN3C)nc3c2CCC2(CCCc4cccc(Cl)c42)O3)CC1 (single isomer, unassigned) [Example 23a] | 5070 | 26500 |  |
| C=CC(=O)N1CCN(c2nc(OC[C@@H]3CCCN3C)nc3c2CCC2(CCCc4cccc(C)c42)O3)CC1 (single isomer, unassigned) [Example 24a] | 2390 | 12900 |  |
| C=CC(=O)N1CCN(c2nc(OC[C@@H]3CCCN3C)nc3c2CCC2(CC(C)c4ccccc42)O3)C[C@@H]1CC#N (single isomer, unassigned) [Example 25a] | 14.2 |  | 1100 |
| C=CC(=O)N1CCN(c2nc(OC[C@@H]3CCCN3C)nc3c2CCC2(CCCc4ccccc42)O3)[C@@H](C)C1 (stereo partly drawn) [Example 13a, 1-((3S)-3-methyl-4-(2′-(((S)-1-methylpyrrolidin-2-yl)methoxy)-3,4,5′,6′-tetrahydro-2H-spiro[naphthalene-1,7′-pyrano[2,3-d]pyrimidin]-4′-yl)piperazin-1-yl)prop-2-en-1-one] | 576 | 4980 |  |
| C=CC(=O)N1CCN(c2nc(OC[C@@H]3CCCN3C)nc3c2CCC2(CCCc4ccccc42)O3)C[C@H]1C (stereo partly drawn) [Example 14a, 1-((2R)-2-methyl-4-(2′-(((S)-1-methylpyrrolidin-2-yl)methoxy)-3,4,5′,6′-tetrahydro-2H-spiro[naphthalene-1,7′-pyrano[2,3-d]pyrimidin]-4′-yl)piperazin-1-yl)prop-2-en-1-one] | 2080 | 4200 |  |
